Results reported in patent US9067926B2, “Fluoromethyl-5,6-dihydro-4H-[1,3]OXAZINES” (F. Hoffmann-La Roche AG, priority 2012, dated 2015).

How the values were obtained:
[1] = molecular target: T1, cathepsin D (from human liver) (Homo sapiens, UniProt P07339); assay: Cathepsin D fluorescent substrate kinetic assay; assay type: biochemical; conditions: pH 5.5
T1 construct: cathepsin D (from human liver, Calbiochem) diluted in assay buffer; purchased Calbiochem; host or cells: human liver
Excerpt: Cathepsin D and Cathepsin E Fluorescent Substrate Kinetic Assays
The MR121 fluorescence assays described below are based on the fact that MR121 forms a non-fluorescent ground state complex with tryptophan. In solution this formation occurs at millimolar concentrations of tryptophan. The mechanism can be used to design a generic biochemical assay for proteases. […] In absence of protease activity, the substrates remain intact and the MR121 fluorescence is reduced by the high local Trp-concentration. If the substrates are cleaved by the enzymes the MR121 fluorescence is recovered.
The fluorescent substrate cathepsin D and cathepsin E kinetic assays were performed at room temperature in 384-well microtiter plates (black with clear flat bottom, non binding surface plates from Corning) in a final volume of 51 μl. The test compounds were serially diluted in DMSO (15 concentrations, 1/3 dilution steps) and 1 μl of diluted compounds were mixed for 10 min with 40 μl of cathepsin D (from human liver, Calbiochem) diluted in assay buffer (100 mM sodium acetate, 0.05% BSA, pH 5.5; final concentration: 200 nM) or with 40 μl of recombinant human cathepsin E (R&D Systems) diluted in assay buffer (100 mM sodium acetate, 0.05% BSA, pH 4.5; final concentration: 0.01 nM). […] The slope in the linear range of the kinetic was calculated and the IC50 of the test compounds were determined using a four parameter equation for curve fitting.

CYP3A4 = molecular target: T2, CYP3A4 (Homo sapiens, UniProt P08684); assay: CYP inhibition assay, CYP3A4; assay type: in vitro ADME; conditions: pooled human liver microsomes, midazolam substrate; read-out: CYP IC50 3A4
T2 construct: 0.2 mg/ml pooled human liver microsomes; from tissue; host or cells: pooled human liver microsomes
Experimental: Inhibition of cytochromes P450 (CYPs) 2C9, 2D6 and 3A4 was assessed using human liver microsomes and CYP-selective substrate metabolism reactions. […] Quenched incubates were stored at −20° C. for at least 1 hour before centrifugation (20,000×g, 20 minutes). Supernatants were removed and diluted 1:1 with water prior to analysis using a RapidFire sample injector system and API4000 mass spectrometer. Peak areas for substrate, metabolite and stable-labelled metabolite standard were determined using MS/MS. The peak area ratios between the metabolite generated by the enzymatic reaction and the internal standard were used in subsequent calculations. The percentage of (DMSO) control activity was calculated for each incubate and IC50 values estimated by non-linear regression. Sulfaphenazole, quinidine or ketoconazole were tested in each CYP2C9, CYP2D6 or CYP3A4 inhibition experiment, respectively, to ensure assay sensitivity and reproducibility.

[2] = Detection of glutathione conjugates (GSH); assay type: in vitro ADME, human; set-up: key: NF = in vitro no adduct formation relative to control; conditions: in vitro, relative to control
Excerpt: Detection of Glutathione Conjugates (GSH) The assay conditions for the detection of glutathione conjugates follow the procedure described by C. M. Dieckhaus et al. in Chem. Res. Toxicol. 2005, 18, 630-63.

P-gp (human MDR1) = molecular target: T3, P-gp (human MDR1) (Homo sapiens, UniProt P08183); assay: P-gp (P-Glycoprotein) bidirectional transcellular transport assay, LLC-PK1 and L-MDR1 cells; assay type: in vitro ADME; conditions: LLC-PK1 cells expressing human MDR1, PappBA/PappAB
T3 construct: host or cells: LLC-PK1 (porcine kidney epithelial cells)
Experimental: P-gp (P-Glycoprotein) Assay
Cell Lines and Vesicles Used for Transport Experiments
The MDR1 (human multidrug resistance protein 1) transfected cell lines were obtained from Dr. A. Schinkel, The Netherlands Cancer Institute (Amsterdam, The Netherlands). All cell lines were cultured on permeable inserts (Costar, 0.33 cm^2 area, pore size 3.0 μm, low density) at 4.5·10^5 cells/cm^2. Transport measurements were performed at day 4 after seeding. Tightness of the cell monolayer was controlled via the permeability of the extracellular marker lucifer yellow (10 μM).
In Vitro Transport Experiments
Bidirectional transcellular transport using LLC-PK1 and L-MDR1 LLC-PK1 cells exogenously expressing the human MDR1)
The method used for transport experiments were performed on a TECAN automated liquid handling system. Briefly, medium was removed from all compartments and the medium of receiver side was replaced with culture medium. The trans-cellular transport measurements were initiated by adding the substrate together with extracellular marker lucifer yellow to the donor side. Inhibitors were added to both sides (1 μM elacridar). […] The plates were incubated at 37° C. and 5% CO2 in a Liconic incubator. Samples were taken from the donor and the opposite (acceptor) side after 2 hours incubation. Concentrations of substrate in both compartments were determined by scintillation counting (digoxin) or by LC-MS/MS. […] In each experiment 3 different inserts were used for each condition and a mean was calculated.
Bidirectional transcellular transport using LLC-PK1 and L-MDR1 cells
For the transcellular transport, the following equation was used for data evaluation: […]
Where Papp, A, C0, and dQ/dt represent the apparent permeability, the filter surface area, the initial concentration, and the amount transported per time period, respectively.
Transport efflux ratios (ER) were calculated as follows: […]
Where PappBA is the permeability value in the basolateral-to-apical direction, and PappAB the permeability value in the apical-to-basolateral direction. Papp were not corrected for flux of the extracellular marker lucifer yellow, which was used to assess the quality of the cell mono layers.

Aβ40 in brain = assay: In vivo inhibition of Aβ40 in brain of wild-type mice; conditions: Mus musculus, po; 10 mg/kg p.o., brain Aβ40 after 4 h, female C57Bl/6J mice; read-out: in vivo effect, Percentage of control @ 10 mg/kg p.o
Experimental: In Vivo Experiments. […] The test compound was dissolved in 5% EtOH, 10% Solutol and was applied per os at 10 ml/kg. After 4 h the animals were sacrificed and brain and plasma were collected. The brain was cut into halves and immediately frozen on dry ice. Brain was used for measurement of Aβ40 and plasma was used for determination of compound exposure. […] Brain tissue was homogenized in 2% DEA buffer in a Roche […] (20'', 4000 rpm) and subsequently centrifuged for 1 h at 100'000 g. DEA was reduced to 0.2% in 50 mM NaCl and one half of the DEA lysate was passed over an Oasis Solid Phase extraction plate (Waters; Cat.Nr. 186000679) which had been activated with MeOH and equilibrated in dH2O (1 ml each). After washes in 10% and 30% MeOH (1 ml each) the AP-peptides were eluted in 0.8 ml 2% NH4OH in 90% MeOH. […] Aβ40 was determined by an AlphaLISA assay (Perkin Elmer). In a white 96well half-area microplate (Perkin Elmer Cat.Nr. 6005561), 20 μl of the reconstituted sample were mixed with 5 μl biotinylated BAP-24 (specific for C-terminus of Aβ40 (Brockhaus, M.; Grunberg, J.; Rohrig, S.; Loetscher, H.; Wittenburg, N.; Baumeister, R.; Jacobsen, […]. Caspase-mediated cleavage is not required for the activity of presenilins in amyloidogenesis and NOTCH signaling. […] The mix was incubated for 1 h at RT in the dark. Then 20 μl Streptavin-coated Donor Beads (Perkin Elmer Cat. Nr. 6760002, final dilution 1:125) were added and this final mix was incubated in the dark for another 30 min at r.t. before RFU was measured in an AlphaScreen Reader(Perkin Elmer Envision 2104).

T1 sequence (P07339 65-412): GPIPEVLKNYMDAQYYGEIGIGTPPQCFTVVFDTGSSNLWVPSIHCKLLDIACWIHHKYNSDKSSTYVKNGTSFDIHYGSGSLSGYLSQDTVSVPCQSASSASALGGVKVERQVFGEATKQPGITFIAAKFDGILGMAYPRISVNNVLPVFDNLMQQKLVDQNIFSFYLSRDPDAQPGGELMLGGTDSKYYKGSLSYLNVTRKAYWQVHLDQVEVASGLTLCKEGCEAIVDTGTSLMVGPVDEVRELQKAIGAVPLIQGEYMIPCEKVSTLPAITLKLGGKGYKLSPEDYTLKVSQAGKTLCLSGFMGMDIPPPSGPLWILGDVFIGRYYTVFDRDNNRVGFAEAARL
T3 sequence (P08183 whole entry): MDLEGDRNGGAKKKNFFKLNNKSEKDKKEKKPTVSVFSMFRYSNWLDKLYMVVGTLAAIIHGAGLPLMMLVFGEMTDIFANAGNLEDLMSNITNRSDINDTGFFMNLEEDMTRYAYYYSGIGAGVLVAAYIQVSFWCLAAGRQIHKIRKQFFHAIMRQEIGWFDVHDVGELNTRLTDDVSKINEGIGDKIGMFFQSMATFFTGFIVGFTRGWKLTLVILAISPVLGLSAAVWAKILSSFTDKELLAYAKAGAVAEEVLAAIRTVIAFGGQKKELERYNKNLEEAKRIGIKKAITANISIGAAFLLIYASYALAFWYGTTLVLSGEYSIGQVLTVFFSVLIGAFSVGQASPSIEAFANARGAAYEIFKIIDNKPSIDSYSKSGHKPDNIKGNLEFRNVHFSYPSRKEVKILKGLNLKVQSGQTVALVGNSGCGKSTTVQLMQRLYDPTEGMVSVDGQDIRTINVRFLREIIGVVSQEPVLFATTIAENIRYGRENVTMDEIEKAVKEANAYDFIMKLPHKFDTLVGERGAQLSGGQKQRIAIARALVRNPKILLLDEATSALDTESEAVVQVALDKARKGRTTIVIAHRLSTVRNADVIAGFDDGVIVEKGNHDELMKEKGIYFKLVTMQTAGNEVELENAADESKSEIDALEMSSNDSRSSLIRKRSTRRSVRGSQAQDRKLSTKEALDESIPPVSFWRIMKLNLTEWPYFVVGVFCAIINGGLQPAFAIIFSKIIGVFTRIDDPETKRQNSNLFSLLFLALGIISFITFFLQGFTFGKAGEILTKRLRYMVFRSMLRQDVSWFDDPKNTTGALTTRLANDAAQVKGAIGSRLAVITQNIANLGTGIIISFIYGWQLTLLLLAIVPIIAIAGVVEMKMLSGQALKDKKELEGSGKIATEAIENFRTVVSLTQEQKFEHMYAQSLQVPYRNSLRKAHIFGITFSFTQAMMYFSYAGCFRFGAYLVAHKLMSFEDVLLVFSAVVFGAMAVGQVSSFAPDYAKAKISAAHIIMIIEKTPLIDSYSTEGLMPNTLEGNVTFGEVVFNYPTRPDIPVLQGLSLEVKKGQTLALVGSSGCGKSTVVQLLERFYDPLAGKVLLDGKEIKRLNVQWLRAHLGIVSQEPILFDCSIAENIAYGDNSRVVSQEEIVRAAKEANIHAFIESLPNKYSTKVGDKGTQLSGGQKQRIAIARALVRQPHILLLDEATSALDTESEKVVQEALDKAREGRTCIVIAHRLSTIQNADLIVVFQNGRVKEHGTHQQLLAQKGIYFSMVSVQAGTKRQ
T2 sequence (P08684 whole entry): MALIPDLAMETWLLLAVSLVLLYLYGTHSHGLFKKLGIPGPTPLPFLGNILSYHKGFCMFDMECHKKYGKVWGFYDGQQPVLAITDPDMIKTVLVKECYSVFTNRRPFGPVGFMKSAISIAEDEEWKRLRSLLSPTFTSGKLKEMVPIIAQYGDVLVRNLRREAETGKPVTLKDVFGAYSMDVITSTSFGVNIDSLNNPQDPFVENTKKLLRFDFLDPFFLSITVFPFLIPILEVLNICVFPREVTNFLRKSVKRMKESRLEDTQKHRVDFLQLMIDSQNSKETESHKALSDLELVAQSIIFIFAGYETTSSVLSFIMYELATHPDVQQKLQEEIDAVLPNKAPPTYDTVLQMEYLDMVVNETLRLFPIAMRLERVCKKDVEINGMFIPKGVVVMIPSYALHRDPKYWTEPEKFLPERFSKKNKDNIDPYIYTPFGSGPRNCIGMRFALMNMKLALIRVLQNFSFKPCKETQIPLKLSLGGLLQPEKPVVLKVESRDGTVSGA

IC50 [1] [µM]	IC50 (CYP3A4) [µM]	GSH human (glutathione adduct formation) [2]	efflux ratio at 2 h (P-gp (human MDR1))	Structure (SMILES)	response vs control in vivo at 10 mg/kg (Aβ40 in brain) [%]
> 200	> 50	NF	1.82	C[C@@]1(c2cc(NC(=O)c3ccc(Cl)cn3)ccc2F)C[C@@H](C(F)(F)F)OC(N)=N1 [Example 2, N-(3-((4S,6S)-2-amino-4-methyl-6-(trifluoromethyl)-5,6-dihydro-4H-1,3-oxazin-4-yl)-4-fluorophenyl)-5-chloropicolinamide]	93
> 200	> 50	NF	2.3	C[C@@]1(c2cc(NC(=O)c3ccc(OCF)cn3)ccc2F)C[C@@H](C(F)(F)F)OC(N)=N1 [Example 11, N-(3-((4S,6S)-2-Amino-4-methyl-6-(trifluoromethyl)-5,6-dihydro-4H-1,3-oxazin-4-yl)-4-fluorophenyl)-5-(fluoromethoxy)picolinamide]	87
179	> 50	NF	2.63	CC#CCOc1cnc(C(=O)Nc2ccc(F)c([C@]3(C)C[C@@H](C(F)(F)F)OC(N)=N3)c2)cn1 [Example 22, N-(3-((4S,6S)-2-Amino-4-methyl-6-(trifluoromethyl)-5,6-dihydro-4H-1,3-oxazin-4-yl)-4-fluorophenyl)-5-(but-2-ynyloxy)pyrazine-2-carboxamide]	83
> 200	> 50	NF	1.5	NC1=N[C@](CF)(c2cc(NC(=O)c3ccc(OCF)cn3)ccc2F)C[C@@H](C(F)(F)F)O1 [Example 35, N-(3-((4S,6S)-2-Amino-4-(fluoromethyl)-6-(trifluoromethyl)-5,6-dihydro-4H-1,3-oxazin-4-yl)-4-fluorophenyl)-5-(fluoromethoxy)picolinamide]	74
